We go through 122 compounds from a melting point compilation (Tetko et al.).

Each structure is given as a SMILES string.

With `CS(=O)(=O)c1ccc(N)cc1Cl`, the melting point lay in the range of 193 to 195 °C.
The value for `O=C(O)c1csc(-c2ccsc2)n1` was 165 to 167 °C.
For `COc1ccc2cc(C(=O)O)c(C)nc2c1`, the melting point fell in the range of 209 to 211 °C.
Turning to `CCOC(=O)c1cncnc1O`, the melting point was in the range of 179 to 181 °C.
The result for `COc1ccc(-c2cc(C(=O)O)c3ccccc3n2)cc1OC` reads 234 to 236 °C; that for `CC(C)(C)OC(=O)NCC1CCC(C(=O)O)CC1` (configuration not stated), 132 to 134 °C.
`CCOC(C)c1nc(C(=O)O)cs1` (configuration not stated): the melting point is 61 to 63 °C.
The result for `COc1nc(Cl)ncc1Br` reads 76 to 78 °C; that for `O=C(Nc1ccc(O)c(C(=O)O)c1)c1cc(Cl)cc(Cl)c1`, 288 to 290 °C; that for `Cc1cc(Cl)nc(-c2ccccn2)n1`, 70 to 72 °C.
`O=C(O)c1cn(-c2ccc(C(F)(F)F)cn2)nn1` returned a melting point of 134 to 136 °C.
As to `COCCn1c(S)nc2ccccc21`, the melting point fell in the range of 127 to 129 °C.
The value for `Nc1nc(-c2ccc3c(c2)OCO3)cs1` was 176 to 180 °C.
`Nc1nc(-c2ccc(F)cc2)ns1`: the melting point was 154 to 156 °C.
For the compound `O=C1CCOc2c(Cl)ccc(Cl)c21`, the melting point lay within 67 to 69 °C.
The result for `NNC(=O)Nc1c(Cl)cc(Cl)cc1Cl` reads 229 to 231 °C; that for `O=C(O)c1cccc(=O)n1CCOc1ccccc1Cl`, 118 to 120 °C; that for `COc1ccc(NS(=O)(=O)c2ccc(N)cc2)cc1OC`, 171 to 173 °C.
The value for `CCOC(=O)C1CN(Cc2ccccc2)CCC1=O` (configuration not stated) was 161 to 163 °C.
The compound `CCN(CC)C(N)=S` had a melting point of 98 to 102 °C.
The result for `CCOc1ccc(NS(=O)(=O)c2ccc(OC)c(N)c2)cc1` reads 94 to 95 °C; that for `O=C(O)CCN1C(=O)COc2ccccc21`, 168 to 170 °C.
`CCCOc1c(Cl)cc(C#N)cc1OC` returned a melting point of 31 to 33 °C.
`CSc1cc(C(=O)O)oc1C` showed a melting point of 144 to 146 °C.
`Nc1cccc(Oc2ncccn2)c1` displayed a melting point of 125 to 127 °C.
For the compound `NC(=O)C(Cl)c1ccc(Br)cc1` (configuration not stated), the melting point lay in the range of 164 to 166 °C.
The value for `CC(C)NC(=O)c1ccc(Cl)c(N)c1` was 131 to 133 °C; that for `Brc1ccc(OCCc2ccccc2)cc1` was 49 to 51 °C; that for `O=C(O)c1ccc(-c2ccccc2F)o1` was 173 to 175 °C.
For `O=C(O)Cc1csc2nccn12`, the melting point lay in the range of 259 to 261 °C.
Compound `O=C(O)C#Cc1ccc2c(c1)OCO2` yielded a melting point of 165 to 167 °C.
`N#Cc1ccsc1NC(=O)CCCl` came in with a melting point of 150 to 152 °C.
`Nc1ccc(OCCO)cc1C(F)(F)F` showed a melting point of 73 to 75 °C.
The result for `O=C(O)COc1ccc2ccccc2c1Br` reads 158 to 160 °C; that for `Cn1ncc(C(=O)O)c1N`, 139 to 141 °C; that for `O=[N+]([O-])c1cccc(-c2cnc(CCCl)o2)c1`, 73 to 75 °C.
Consider `COc1ccc(/C=N/OCC(=O)O)cc1`, for which the melting point fell in the range of 101 to 103 °C.
For the compound `CCOc1ccc(C(=O)O)cn1`, the melting point was in the range of 184 to 186 °C.
Take `Cc1nc(-c2ccc(Br)cc2Cl)n[nH]1`: the melting point was in the range of 179 to 181 °C.
`CCOC(=O)c1ccccc1C#N`: the melting point is 59 to 61 °C.
Turning to `COc1ccc(I)cc1F`, the melting point lay within 32 to 34 °C.
For the compound `N#Cc1ccc(I)c(C(F)(F)F)c1`, the melting point fell in the range of 100 to 102 °C.
`NS(=O)(=O)c1cccc2c1N=S=N2` displayed a melting point of 128 to 130 °C.
The value for `Cc1nc(CSCC(=O)O)cs1` was 155 to 157 °C; that for `CCCn1c(C)c(C(=O)OCC)c2cc(O)ccc21` was 179 to 181 °C; that for `CC(C)n1c(=O)[nH]c2cc(C(=O)O)ccc2c1=O` was 332 to 334 °C.
Turning to `CCC(C)NC(=O)CN1CCNCC1` (configuration not stated), the melting point lay in the range of 55 to 57 °C.
The compound `CC(C)N1CCc2c(sc(N)c2C#N)C1` yielded a melting point of 167 to 169 °C.
In turn, `O=C(O)c1n[nH]c(=O)c2ccccc12` displayed a melting point of 230 to 232 °C.
`O=S1(=O)Nc2cccc3cccc1c23` came in with a melting point of 175 to 177 °C.
Take `N#CCCN1C(=O)c2ccccc2C1=O`: the melting point was 153 to 155 °C.
Turning to `Cc1ccc(F)c2c1NC(=O)C2=O`, the melting point lay in the range of 227 to 229 °C.
With `O=C(O)CCc1c(-c2ccc(F)cc2)[nH]c2ccc(F)cc12`, the melting point is 131 to 135 °C.
The compound `O=C(O)c1ccccc1S(=O)(=O)C(F)(F)F` registered a melting point of 107 to 109 °C.
The result for `Nc1ccc(CCN2CCCCC2)cc1` reads 54 to 56 °C; that for `Cn1nc(C(=O)O)c(=O)c2ccccc21`, 244 to 246 °C; that for `Nc1nnc(-c2cccc(OC(F)F)c2)o1`, 179 to 181 °C.
The result for `Cc1cc2n(n1)CCC(=O)N2` reads 221 to 223 °C; that for `FC(F)(F)c1ccc(-n2nnnc2CCl)cc1`, 56 to 58 °C.
The compound `Cc1ccc2c(c1)c(C=O)c(C)n2C` registered a melting point of 104 to 106 °C.
The compound `CC(Cl)C(=O)Nc1c(Cl)cc(Cl)cc1Cl` (configuration not stated) yielded a melting point of 153 to 155 °C.
In turn, `N#Cc1ccc(N2CCN(c3ccccn3)CC2)nc1` gave a melting point of 165 to 167 °C.
The result for `ClCc1coc(-c2ccccc2)n1` reads 51 to 55 °C; that for `O=C(O)C1(c2ccccc2)CCC1`, 105 to 107 °C; that for `CN(C)c1ccc(/C=C/c2cc(C(=O)O)c3cc(Br)ccc3n2)cc1`, 298 to 300 °C.
`CC(O)c1nc(-c2ccccc2)cs1` (configuration not stated) displayed a melting point of 75 to 77 °C.
`C=CCNC(=O)c1ccc(Cl)nc1` had a melting point of 105 to 107 °C.
The result for `CCOc1ccc(C(=O)N(C)C)cc1N` reads 127 to 129 °C; that for `Cc1ccc(OCc2nc(C=O)cs2)cc1`, 86 to 88 °C.
With `NC(=S)Cn1ccc(=O)[nH]c1=O`, the melting point was in the range of 256 to 258 °C.
Take `CC(=O)c1ccc(S(=O)(=O)NC(CC(N)=O)C(=O)O)cc1` (configuration not stated): the melting point is 180 to 182 °C.
In the case of `O=C(CCl)N1c2ccccc2CCc2ccccc21`, the melting point lay in the range of 96 to 98 °C.
For `CCOC(=O)c1nc(-c2cccs2)oc1N`, the melting point fell in the range of 164 to 166 °C.
As for `Nc1ccc(CCN2CCOCC2)cc1`, the melting point lay within 87 to 89 °C.
In the case of `Cc1cc(N)n(-c2nc3ccccc3[nH]2)n1`, the melting point fell in the range of 203 to 205 °C.
`O=C(O)c1cn(-c2ccccc2)nc1-c1ccc(Cl)s1` returned a melting point of 209 to 211 °C.
Compound `CCOc1ccccc1OCC(=O)NN` showed a melting point of 94 to 96 °C.
`O=Cc1cc(Br)c(OCc2ccccc2)c(Br)c1` came in with a melting point of 78 to 80 °C.
The compound `NCC1CCN(c2ccncc2)CC1` yielded a melting point of 72 to 74 °C.
In turn, `O=C(O)c1cc(N=Nc2ccc(S(=O)(=O)Nc3ccccn3)cc2)ccc1O` gave a melting point of 260 to 265 °C.
The result for `NC(C(=O)O)c1cccc(F)c1` (configuration not stated) reads 273 to 275 °C.
`Cc1cc(Nc2nc3ccccc3nc2Cl)n(-c2ccccc2)n1`: the melting point was 178 to 180 °C.
For the compound `COc1ccc2c(CCl)cc(=O)oc2c1`, the melting point lay in the range of 189 to 191 °C.
In turn, `CC(C)Oc1ccc(Cl)cc1C(=O)O` had a melting point of 83 to 85 °C.
Regarding `O=C(CC1SC(N2CCCC2)=NC1=O)Nc1ccc(C(=O)O)cc1` (configuration not stated), the melting point lay in the range of 180 to 183 °C.
On to `O=C(O)CCCOc1cccc(F)c1`, for which the melting point was in the range of 51 to 53 °C.
For `CC(C)c1cc(N)n(C(C)C)n1`, the melting point fell in the range of 52 to 54 °C.
The result for `NCc1ccc(C(N)=O)cc1` reads 141 to 143 °C.
In the case of `O=C1CCCC(C(F)(F)F)N1` (configuration not stated), the melting point fell in the range of 123 to 125 °C.
For `OCC1NCCc2ccccc21` (configuration not stated), the melting point fell in the range of 71 to 73 °C.
In turn, `NCC(O)COc1ccc2c(c1)OCO2` (configuration not stated) registered a melting point of 107 to 109 °C.
Take `CCOc1ccc(N)cc1S(=O)(=O)N(C)C`: the melting point is below 17 °C.
`COc1cccc(C2CC2C(=O)O)c1` (configuration not stated) registered a melting point of 90 to 92 °C.
Consider `CC1CN(c2ccccc2N)CC(C)O1` (configuration not stated), for which the melting point lay within 83 to 85 °C.
The result for `Cn1c(C2CC2)nc2c1CCNC2` reads 169 to 171 °C; that for `O=C(c1cc(Cl)nc2ccccc12)N1CCOCC1`, 175 to 177 °C; that for `CS(=O)(=O)Cc1ccc(Cl)c(N)c1`, 137 to 139 °C.
Compound `COC(=O)C1Cc2ccccc2CN1C(=O)CCl` (configuration not stated) came in with a melting point of 85 to 87 °C.
Take `c1cc(C2CCNCC2)[nH]n1`: the melting point lay in the range of 146 to 148 °C.
`NC(=O)C1CCCN1C(=O)NC(=O)CCl` (configuration not stated): the melting point was in the range of 126 to 128 °C.
With `Cc1ccc(C(=O)NC(C(=O)O)C(C)C)cc1` (configuration not stated), the melting point was in the range of 155 to 157 °C.
The result for `CC(=O)c1cnn(-c2ccc(F)cc2)c1C` reads 87 to 89 °C.
The compound `COC(=O)c1c(CC(=O)O)[nH]c(C(C)=O)c1C` registered a melting point of 205 to 207 °C.
The result for `Cc1nnc(-c2cccc(N)c2)n1C` reads 189 to 191 °C; that for `O=C(O)c1cnn(-c2ccccc2)c1C1CC1`, 173 to 175 °C; that for `O=C(O)C1CCCN1C(=O)c1ccco1` (configuration not stated), 185 to 187 °C.
Compound `Cc1cc(C(=O)O)sc1-c1ccc(F)cc1` gave a melting point of 206 to 208 °C.
Compound `Cc1cnn(Cc2ccc(N)cc2)c1` had a melting point of 78 to 80 °C.
Compound `COc1cccc(Cc2nnc(N)s2)c1` had a melting point of 104 to 106 °C.
Take `O=C(O)c1cscn1`: the melting point was 195 to 197 °C.
`O=C(O)CCc1ccc2ccccc2n1` yielded a melting point of 107 to 109 °C.
In turn, `Oc1ccnc2cc(Br)ccc12` had a melting point of 286 to 288 °C.
`COc1ccc(Oc2ncccc2N)cc1` displayed a melting point of 149 to 151 °C.
`Cc1nn(C)c2c1NCCS2(=O)=O` registered a melting point of 110 to 112 °C.
With `Nc1nncn1Cc1ccccc1`, the melting point was in the range of 210 to 212 °C.
The value for `N#Cc1ccc2c(c1)CCO2` was 64 to 66 °C; that for `NCc1ccc(-c2ccn[nH]2)cc1` was 141 to 143 °C; that for `NC(=NO)c1cccc(CN2CCOCC2)c1` was 155 to 157 °C.
Regarding `Clc1cc2c(Cl)ncnc2[nH]1`, the melting point was 239 to 241 °C.
The result for `O=C(CCl)NCCc1ccsc1` reads 75 to 77 °C; that for `C#CCNC(=O)Nc1ccc(C(C)=O)cc1`, 169 to 171 °C.
`Cc1cc(C(=O)O)c(C)n1-c1ccccc1` returned a melting point of 213 to 215 °C.
